Test results published in ChEMBL document CHEMBL1158175, “Substituted benzylaminoalkylindoles with preference for the sigma2 binding site” (Eur J Med Chem, 2008).

What was measured:
[1] = target: Sigma non-opioid intracellular receptor 1 (Rattus norvegicus) (UniProt Q9R0C9); test: Displacement of [3H] (+)-pentazocine from sigma 1 receptor in rat liver homogenate at 100 nM; format: tissue-based
Rattus norvegicus [2] = organism: Rattus norvegicus; test: Displacement of [3H]DTH from sigma 2 receptor in rat liver homogenate at 100 nM in presence of (+)-pentazocine; format: tissue-based
[3] = Displacement of [3H]DTH from sigma 2 receptor in rat liver homogenate in presence of (+)-pentazocine; format: tissue-based
[4] = target: Sigma non-opioid intracellular receptor 1 (Rattus norvegicus, UniProt Q9R0C9); test: Displacement of [3H] (+)-pentazocine from sigma 1 receptor in rat liver homogenate; format: tissue-based
Sequence of Sigma non-opioid intracellular receptor 1 (Q9R0C9 whole entry): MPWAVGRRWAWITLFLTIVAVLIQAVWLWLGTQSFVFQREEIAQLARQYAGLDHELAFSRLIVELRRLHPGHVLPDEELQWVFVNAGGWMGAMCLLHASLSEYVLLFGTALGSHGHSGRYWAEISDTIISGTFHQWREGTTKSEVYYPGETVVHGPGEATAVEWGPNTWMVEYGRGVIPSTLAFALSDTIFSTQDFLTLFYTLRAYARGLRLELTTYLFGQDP

Rattus norvegicus [5] = organism: Rattus norvegicus; test: Selectivity ratio of Ki for rat sigma 1 receptor to Ki for rat sigma 2 receptor

Sequence of Sigma non-opioid intracellular receptor 1 (Rattus norvegicus) (Q9R0C9 whole entry): as above

Row | SMILES | Activity [1] [%] | Activity (Rattus norvegicus [2]) [%] | Ki [3] [nM] | Ki [4] [nM] | Ratio Ki (Rattus norvegicus [5]) | IC50 [3] [nM]
1 | CN(CCCCc1cn(-c2ccc(F)cc2)c2ccccc12)Cc1cccc(Br)c1 | 28 | 78 | – | – | – | –
2 | Cc1ccc(CN(C)CCCCc2cn(-c3ccc(F)cc3)c3ccccc23)cc1C | 37 | 93 | 5.9 | 20.8 | 0.05 | –
3 | CN(CCCc1cn(-c2ccc(F)cc2)c2ccccc12)Cc1cccc(Br)c1 | 40 | 62 | – | – | – | –
4 | CN(CCCc1cn(-c2ccc(F)cc2)c2ccccc12)Cc1cccc(Cl)c1 | 42 | 59 | 124 | 98.9 | 0.8 | –
5 | Cc1ccc(CN(C)CCCc2cn(-c3ccc(F)cc3)c3ccccc23)cc1 | 69 | 78 | – | – | – | –
6 | CN(CCCc1cn(-c2ccc(F)cc2)c2ccccc12)Cc1ccc(Cl)c(Cl)c1 | 28 | 39 | – | – | – | –
7 | CN(CCCc1cn(-c2ccc(F)cc2)c2ccccc12)Cc1ccc(Br)cc1 | 71 | 54 | – | – | – | –
8 | Cc1ccc(CN(C)CCCc2cn(-c3ccc(F)cc3)c3ccccc23)cc1C | 38 | 85 | 46.9 | 118 | 2.5 | –
9 | CN(CCCCc1cn(-c2ccc(F)cc2)c2ccccc12)Cc1ccc(Cl)cc1 | 72 | 85 | – | – | – | –
10 | CN(CCCCc1cn(-c2ccc(F)cc2)c2ccccc12)Cc1ccc(Br)cc1 | 70 | 84 | – | – | – | –
11 | CN(CCCc1cn(-c2ccc(F)cc2)c2ccccc12)Cc1ccc(Cl)cc1 | 68 | 59 | – | – | – | –
12 | Cc1cccc(CN(C)CCCc2cn(-c3ccc(F)cc3)c3ccccc23)c1 | 63 | 64 | – | – | – | –
13 | COc1cccc2c1CCCC2CCCCN1CCN(C2CCCCC2)CC1 (stereo not drawn) | – | – | 0.34 | – | – | –
14 | CN(CCCCc1cn(-c2ccc(F)cc2)c2ccccc12)Cc1ccc(Cl)c(Cl)c1 | 10 | 69 | – | – | – | –
15 | Cc1ccc(CN(C)CCCCc2cn(-c3ccc(F)cc3)c3ccccc23)cc1 | 71 | 87 | – | – | – | –

More lines, now with the values ahead:

Row | Activity [1] [%] | Activity (Rattus norvegicus [2]) [%] | Ki [3] [nM] | Ki [4] [nM] | Ratio Ki (Rattus norvegicus [5]) | IC50 [3] [nM] | SMILES
16 | 58 | 87 | – | – | – | – | CN(CCCCc1cn(-c2ccc(F)cc2)c2ccccc12)Cc1ccccc1Cl
17 | 41 | 43 | – | – | – | – | CN(CCCc1cn(-c2ccc(F)cc2)c2ccccc12)Cc1ccccc1Br
18 | 46 | 86 | – | – | – | – | CN(CCCCc1cn(-c2ccc(F)cc2)c2ccccc12)Cc1ccccc1Br
19 | 51 | 85 | – | – | – | – | Cc1cccc(CN(C)CCCCc2cn(-c3ccc(F)cc3)c3ccccc23)c1
20 | 22 | 89 | 25.6 | 201 | 7.9 | – | CN(CCCCc1cn(-c2ccc(F)cc2)c2ccccc12)Cc1cccc(Cl)c1
21 | 56 | 40 | – | – | – | – | CN(CCCc1cn(-c2ccc(F)cc2)c2ccccc12)Cc1ccccc1Cl
22 | 49 | 88 | – | – | – | – | CN(CCCCc1cn(-c2ccc(F)cc2)c2ccccc12)Cc1ccccc1F
23 | 78 | 27 | 444 | 20.8 | 0.05 | – | CN(CCCc1cn(-c2ccc(F)cc2)c2ccccc12)Cc1ccccc1
24 | – | – | – | – | – | 0.12 | Fc1ccc(-n2cc(CCCCN3CCC4(CC3)OCc3ccccc34)c3ccccc32)cc1 [SIRAMESINE]
25 | 76 | 68 | 57.7 | 43 | 0.76 | – | CN(CCCCc1cn(-c2ccc(F)cc2)c2ccccc12)Cc1ccccc1
26 | 59 | 46 | – | – | – | – | CN(CCCc1cn(-c2ccc(F)cc2)c2ccccc12)Cc1ccccc1F
